US8604217B2, “Compound, a process for its preparation, a pharmaceutical composition, use of a compound, a method for modulating or regulating serine/threonine kinases and a serine/threonine kinases modulating agent” (Selvita S.A., priority 2009, dated 2013)

What was measured:
[1] = tested on: human colorectal adenocarcinoma SW480 cells; assay: Growth inhibition test (MTS) on SW480 cells; format: cell-based; details: Homo sapiens, SW480, 72 hours, read-out: SW480 ED50
[2] = tested on: human chronic myelocytic leukemia K562 cells; assay: Growth inhibition test (MTS) on K562 cells; format: cell-based; details: Homo sapiens, K562, 72 hours, read-out: K562 ED50
Description: Ten thousand cells of human chronic myelocytic leukemia K562 were inoculated into each well of a 96-well microplate (manufactured by Corning Corp.) using Iscove's MDM medium (culture medium) containing 10% fetal calf serum (FCS). Next day, a dimethyl sulfoxide (DMSO) solution of each test compound prepared in a concentration of 10 mmol/L was further diluted with culture medium to the desired concentrations (0.1, 0.5, 1, 2.5, 5 and 10 micromol/L), and the diluted solution was added to each well. The individual wells were further cultured in 5% carbon dioxide at 37° C. for 72 hours. After completion of the culture, 10 μl MTS (3-(4,5-Dimethyl-2-thiazolyl)-5-(carboxymethoxyphenyl)-2-(4-sulfophenyl)-2H-tetrazolium, inner salt assay (CellTiter96® AQueous One Solution Cell Proliferation Assay, Promega) was added to each well, and culturing was performed in 5% carbon dioxide at 37° C. for 2 hours. Using a microplate spectrophotometer (Synergy 2 multi-mode microplate reader (BioTek)), the absorbance of each well was measured at 490 nm. The value for cells not incorporated with a test compound was designated as 100%. By comparing these values with the absorbance difference obtained at the well in which each test compound was added, the cell viability (% viability) after treatment with the test compound was calculated.

PIM-1 = PIM-1 (Homo sapiens (Human), UniProt P11309); assay: Luminometric kinase assay for PIM1 kinase (Kinase-Glo); format: biochemical; details: 1 μM ATP, 25 min at RT
Chain of PIM-1 (P11309 whole entry): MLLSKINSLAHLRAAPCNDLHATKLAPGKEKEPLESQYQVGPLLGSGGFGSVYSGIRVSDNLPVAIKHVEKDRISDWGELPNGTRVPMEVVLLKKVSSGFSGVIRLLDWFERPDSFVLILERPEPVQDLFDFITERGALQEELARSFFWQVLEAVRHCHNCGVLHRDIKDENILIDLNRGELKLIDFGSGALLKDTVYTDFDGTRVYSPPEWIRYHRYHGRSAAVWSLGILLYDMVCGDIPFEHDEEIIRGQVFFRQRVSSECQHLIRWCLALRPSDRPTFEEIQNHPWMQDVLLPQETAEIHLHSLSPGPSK
In short: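 Kinase and substrate reacted in 8 mM MOPS/NaOH pH7.0, 0.2 mM EDTA, 2 mM MgCl2 with 1 μM ATP for 25 min at RT, compounds serially diluted from 1 μM. Remaining ATP read by Kinase-Glo luminescence; IC50 from variable-slope sigmoidal fit.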

[3] = tested on: human hepatoma HepG2 cells; assay: Growth inhibition test (MTS) on HepG2 cells; format: cell-based; details: 72 hours, read-out: HepG2 ED50
In short: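 HepG2 cells in DMEM with 10% FCS were exposed for 72 h at 37 °C, 5% CO2, to 0.1, 0.5, 1, 2.5, 5 and 10 micromol/L compound. MTS was then added for 2 h and absorbance read at 490 nm. % viability was calculated relative to untreated cells set at 100%.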

[4] = tested on: human prostate adenocarcinoma PC3 cells; assay: Growth inhibition test (MTS) on PC3 cells; format: cell-based; details: Homo sapiens, PC-3, 72 hours, read-out: PC-3 ED50

Compound	IC50 [1] [µM]	IC50 [2] [µM]	IC50 (PIM-1) [µM]	IC50 [3] [µM]	IC50 [4] [µM]
Brc1c(Br)c(Br)c2[nH]nnc2c1Br [TBB, 4,5,6,7-tetrabromo-1Hbenzotriazole, reference compound]	> 10	> 10	> 1	> 10	> 10
Brc1c(Br)c(Br)c2[nH]cnc2c1Br [TBI, 4,5,6,7-tetrabromo-1H-benzimidazole, reference compound]	7.21	> 10	0.102	> 10	> 10
